Measurements taken from patent publication US9625458B2, “Biosensor” (priority 2002, dated 2017).

Experiments:
[1] = molecular target: T1, E. coli glutamate/aspartate binding protein (YBEJ, SEQ ID NO:3) variant Q123C, fluorophore conjugate (Escherichia coli, UniProt P37902, Q123C); assay: Fluorimetric titration of fluorophore conjugates
T1 construct: The underlined methionine is the initiation codon for expression of YBEJ used in the study; initiation methionine (N); Gly-Ser-Gly-(His)n or Gly-Ser-(His)n (C); made in house; host or cells: E. coli BL21-DE3
From the text: (§1) Molecular Cloning. […] Amplified products were cloned into one of the protein expression vectors pAED4 (Doering, “Functional and structural studies of a small f-actin binding domain” in Ph.D. thesis, Massachusetts Institute of Technology, 1992); pKK223-3 (Brosius & Holy, Proc. Natl. Acad. Sci. USA 81:6929-6933, 1984); or pET vectors (Studier et al., Meth. Enzymol. 185:60-89, 1990) (Novagen). N-terminal oligonucleotide primers were designed to clone only the processed periplasmic form, deleting the signal sequence. The C-terminal primer was designed to append the sequence Gly-Ser-Gly-(His)n or Gly-Ser-(His)n, where n=5, 6, or 10. Two tandem stop codons (TAATGA) follow the last His codon. […] Single amino acid substitutions were generated by overlapping PCR mutagenesis (Ho et al., Gene 77:51-59, 1989). All clones and mutations were confirmed by nucleotide sequencing. In the case of arabinose BP, the single cysteine in the wild type sequence was replaced by alanine to eliminate the possibility of reporter group conjugation to this thiol (Miller et al., J. Biol. Chem. 254:7521-7528, 1979). Additionally the sequence of Fe(III) BP was mutated by substitution of Glu57 with Asp to raise the Kd to a concentration range conveniently measured using Fe(III) citrate.
(§2) Fluorophore conjugation to cysteine-substituted bPBPs. Thiol-reactive fluorophores obtained from Molecular Probes (Eugene, Oreg.) were 5-iodoacetamidofluorescein (fluorescein); N-(1-pyrene) iodoacetamide (pyrene); N,N′-dimethyl-N-(iodoacetyl)-N′-(7-nitrobenz-2-oxa-1,3-diazol-4-yl)ethylenediamide (NBD); N-((2-(iodoacetoxy)ethyl)-N-methyl)amino-7-nitrobenz-2-oxa-1,3-diazole (NBDE); and 6-acryloyl-2-dimethylaminonaphthalene (acrylodan). The styryl and naphthyl dyes JPW4039, JPW4042, and JPW4045 (FIG. 3) were synthesized at the University of Connecticut. All fluorophore conjugation steps were typically carried out at room temperature. To protein at a concentration of 100 μM was added tris-(2-carboxyethyl)phosphine HCl to a five-fold molar excess to reduce intermolecular disulfide bonds. A thiol-reactive fluorophore (20 to 25 mM in acetonitrile or dimethyl sulfoxide) was added in small aliquots to a five-fold molar excess over protein. Conjugation proceeded in the dark at room temperature for 4 hours, or overnight at 4° C. Separation of protein from unreacted fluorophore was achieved by exhaustive dialysis or by size-exclusion chromatography. The efficiency of reporter group attachment was assessed by determination of unreacted thiol with Ellman's reagent (Ellman, Arch. Biochem. Biophys. 74:443-450, 1958) or by measuring the ratio of fluorophore to protein from absorbance spectra of the purified conjugate.
(§3) Fluorimetry. All measurements were conducted with an SLM Aminco-Bowman series 2 fluorimeter, with sample stirring at 25° C. Fluorescence emission spectra were acquired with excitation and emission slit widths of 4 and 8 nm, respectively. Photomultiplier tube potential was maintained between 400 and 800 volts. Protein concentrations were in the range of 50 to 1000 nM. Fluorophore-specific excitation was at the following approximate wavelengths: tryptophan, 290 nm; acrylodan, 390 nm; fluorescein, 485 nm; pyrene, 340 nm; NBD and NBDE, 490 nm; JPW4039, 485 nm; JPW4042, 470 nm; JPW4045, 470 nm.
(§4) Corrections were made for dilution of the protein and for background signal from buffer. Binding curves were fit to binding isotherms using equation 3 or 4, as appropriate.
(§5) Analyte affinity measurements. […] The emission wavelength monitored was that of maximum difference in intensity between the ligand-free and bound states. For each conjugate, fluorescence intensiometric observations were fit to a hyperbolic binding isotherm for a two-state model (Marvin et al., Proc. Natl. Acad. Sci. USA 94:4366-4371, 1997): […]

[2] = molecular target: T2, E. coli glutamate/aspartate binding protein (YBEJ, SEQ ID NO:3) variant T129C, fluorophore conjugate (Escherichia coli, UniProt P37902, T129C); assay: Fluorimetric titration of fluorophore conjugates
T2 construct: The underlined methionine is the initiation codon for expression of YBEJ used in the study; initiation methionine (N); Gly-Ser-Gly-(His)n or Gly-Ser-(His)n (C); made in house; host or cells: E. coli BL21-DE3
From the text: as §1, §2, §3, §4, §5

[3] = molecular target: E. coli glucose binding protein variant W183C, fluorophore conjugate (Escherichia coli, UniProt P0AEE5, W206C); assay: biochemical
Protocol: The normal serum glucose range (euglycemia) of 4 to 6 mM is delimited by vertical lines.
as §1, §2, §3, §4
Analyte affinity measurements.

[4] = Fluorescence emission spectra without and with saturating ligand (wavelength shift, ΔIstd, ΔRmax); design: key to ΔIstd: intensity change at λstd normalized to average intensity; key to ΔRmax: ratio change of two emission band areas, unbound vs saturated; conditions: unbound vs ligand-saturated; for ΔIstd: standard intensity change; for ΔRmax: standard ratiometric change
Protocol: as §3
Assessment of fluorescent biosensor function. Fluorescence emission spectra of bPBP-fluorophore conjugates were recorded in the absence and presence of saturating ligand concentrations. Spectral changes were characterized by four parameters: wavelength shift (the difference between the wavelengths of emission maximum in the unbound and ligand-saturated states), direction of intensity change (increase or decrease in intensity at the wavelengths of maximum emission in the two states), standard intensity change (ΔIstd), and standard ratiometric change (ΔR). ΔIstd is defined as the normalized intensity change relative to the average intensity, determined at the wavelength mid-point between the two emission maxima:
[formula] where λstd=(λmax, unbound+λmax, saturated)/2 and I1, I2 are the fluorescence intensities at λstd of each spectrum respectively (FIG. 4A). ΔR is defined in terms of two emission bands, A1 ([λ1, λ2]) and A2 ([λ3, λ4]) (FIG. 4B):
[formula] where ^∘A1, […] the areas in the absence of ligand, and ^∞A1, ^∞A2 the areas in the presence of saturating ligand. A computer program was used to enumerate ΔR for all possible pairs of wavelength bands in the two spectra, to identify the optimal sensing condition, defined as the maximum value of ΔR. Adjustable parameters of the algorithm, and their values used for ΔRmax quantities reported here, are: step size (2 nm), step width (10 nm), minimum integration area limit (fraction of total: 0.1), and maximum integration area limit (fraction of total: 1).

T2 sequence (P37902 other isoform, or with tags, fused parts or gaps T129C): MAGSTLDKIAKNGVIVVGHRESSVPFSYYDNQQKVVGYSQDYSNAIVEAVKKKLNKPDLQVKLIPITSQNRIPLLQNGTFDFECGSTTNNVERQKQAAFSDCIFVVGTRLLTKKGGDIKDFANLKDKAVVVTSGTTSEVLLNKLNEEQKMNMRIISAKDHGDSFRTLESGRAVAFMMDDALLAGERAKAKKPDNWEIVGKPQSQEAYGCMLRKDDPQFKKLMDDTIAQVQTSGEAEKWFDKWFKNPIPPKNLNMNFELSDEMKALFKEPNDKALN
E. coli glucose binding protein variant W183C, fluorophore conjugate, sequence (P0AEE5 24-332 W206C limits assumed): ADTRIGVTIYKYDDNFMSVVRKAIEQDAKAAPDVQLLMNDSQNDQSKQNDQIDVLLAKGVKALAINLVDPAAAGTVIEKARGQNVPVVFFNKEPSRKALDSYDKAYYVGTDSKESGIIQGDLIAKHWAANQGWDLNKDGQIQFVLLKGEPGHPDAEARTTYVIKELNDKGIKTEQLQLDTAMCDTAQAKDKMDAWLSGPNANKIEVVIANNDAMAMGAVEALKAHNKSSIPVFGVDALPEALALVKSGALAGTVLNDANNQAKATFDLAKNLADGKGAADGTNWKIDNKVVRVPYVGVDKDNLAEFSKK
T1 sequence (P37902 other isoform, or with tags, fused parts or gaps Q123C): as the sequence (P37902 other isoform, or with tags, fused parts or gaps T129C) above, with Q96C, C102T counted along it

Compound	ΔIstd [4]	ΔRmax [4]	other results
NC(=O)C[C@H](N)C(=O)O [asparagine]	–	–	Kd [1]: 96 µM; Kd ([2]; T129C-NBD): 5.4 µM
OC[C@H]1OC(O)[C@H](O)[C@@H](O)[C@@H]1O (stereo partly shown) [glucose]	–	–	Kd ([3]; Kd, Acrylodan conjugate, endosteric site): 5.98 mM; Kd ([3]; Kd, Fluorescein conjugate, endosteric site): 17.6 mM; Kd ([3]; appKd, W183C-acrylodan, ratiometric, F450-459/F486-495): ~10.4 mM; Kd ([3]; appKd, W183C-acrylodan, ratiometric, F450-459/F550-559): ~5 mM; Kd ([3]; appKd, W183C-acrylodan, ratiometric, F472-481/F450-459): ~17.4 mM; Kd ([3]; dissociation constant, W183C-acrylodan): 5.98 mM
NC(=O)CC[C@H](N)C(=O)O [glutamine]	–	–	Kd [1]: 49 µM; Kd ([2]; T129C-JPW4039): 23 µM; Kd ([2]; T129C-NBD): 12.1 µM
sulfate BP L65C Acrylodan	0.39	2.95	–
sulfate BP L65C Fluorescein	0.39	1.31	–
sulfate BP L65C JPW4042	0.40	1.82	–
sulfate BP L65C NBD	0.02	0.61	–
sulfate BP L65C Pyrene	0.13	1.20	–
sulfate BP Q294C Acrylodan	0.04	0.13	–
sulfate BP Q294C Fluorescein	0.00	0.11	–
sulfate BP Q294C JPW4042	0.27	1.17	–
sulfate BP Q294C NBD	0.00	0.02	–
sulfate BP Q294C Pyrene	0.01	0.08	–
sulfate BP R134C Acrylodan	0.18	2.26	–
sulfate BP R134C Fluorescein	0.01	0.02	–
sulfate BP R134C JPW4039	0.08	2.02	–
sulfate BP R134C JPW4042	0.52	0.96	–
sulfate BP R134C NBD	0.58	0.37	–
sulfate BP R134C Pyrene	0.15	1.30	–
sulfate BP W290C Acrylodan	0.04	0.03	–
sulfate BP W290C Fluorescein	0.04	0.09	–
sulfate BP W290C JPW4042	0.43	0.89	–
sulfate BP W290C NBD	0.06	0.11	–
sulfate BP W290C Pyrene	0.16	0.37	–
sulfate BP Y67C Acrylodan	0.00	0.12	–
sulfate BP Y67C Fluorescein	0.01	0.04	–
sulfate BP Y67C NBD	0.13	0.20	–
sulfate BP Y67C Pyrene	0.02	0.48	–
